Test [1] concerns Mecp2 female mice (HET). The test can be described thus: NeuroCube gait analysis in RETT mouse model. Type of test: in vivo. As for the experimental part:
(§1) Experiments employed wild type (WT) mice and Mecp2 female mice (HET) that were provided by The Jackson Laboratory, Bar Harbor, ME.
(§2) Breeding of the experimental mice were done at The Jackson Laboratories and were shipped at approximately 5 weeks of age. Dosing experiments were conducted at approximately 6 weeks of age.
(§3) Treatment Groups (N=20) were as follow: • WT—Vehicle • HET—Vehicle • HET—RIV-0561 (1.35 mg/kg; ip QD)+0.675 mg/ml of RIV-0561 in drinking water • HET—RIV-0561 (13.5 mg/kg; ip QD)+0.675 mg/ml of RIV-0561 in drinking water
(§4) NeuroCube® and Startle experiments were conducted when mice were at 8 and 12 weeks of age. All tests were conducted within 2 hours post IP dosing.
NeuroCube® system is a proprietary gait analysis system. The platform employs computer vision to detect changes in gait geometry and gait dynamics in rodent models of neurological disorders, pain, and neuropathies. This platform is unique for gait testing for the following reasons: (1) it is completely automated and thus removes any bias or subjectivity; (2) the system captures both gait geometry and gait dynamics (stance, swing, propulsion, etc.); and (3) the sensitivity of the computer vision and bioinformatics allow the capture of symptoms of the disease model earlier and more accurately.
Mice are placed in the NeuroCube® for a 5-min test. The most dominant features that define the disease phenotype (symptom descriptors) are identified and ranked. Complex bioinformatics algorithms are employed to calculate the discrimination probability between WT and HET mice and can thus detect a test compound's ability to reverse the disease phenotype.

In test [2] the test system is Mecp2 female mice (HET). The experiment in a line: Acoustic startle response in RETT mouse model. Type of test: in vivo. The following applies: HET mice at 8 weeks of age; all doses tested (1.35 or 13.5 mg/kg ip QD + 0.675 mg/ml in drinking water); FIG. 2. As for the experimental part: as §1, §2, §3, §4
The acoustic startle measures an unconditioned reflex response to external auditory stimulation. Mice were placed in the startle enclosures and secured in the sound-attenuated startle chamber (Med Associates Inc., St Albans, VT) on top of a force transducer plate that measures the force of the movements made by the mouse for a 5 min habituation period of white noise (70 dB). Subsequent test sessions consisted of 10 blocks of eleven trials each. Within each block, stimuli of 70, 75, 80, 85, 90, 95, 100, 105, 110, 115, and 120 dB were presented in a random order with a variable inter-trial interval of mean 15 sec (10-20 sec). […] Responses were recorded for 150 ms from startle onset and were sampled every ms. […]

The mark [3] stands for this setting: Gait features at 12 weeks, HET mice, dose not given.

Data on one molecule can be found in US20240024293A1, “NOMETHIAZOLES AS A TREATMENT FOR RETT SYNDROME” (REVIVO THERAPEUTICS, priority 2019, published 2024).

Where a name gives a salt, the structure may show the parent alone. Some results are limits rather than exact numbers.

Take `Cc1ncsc1CCO[N+](=O)[O-]` [RIV-5061, 2-(4-methylthiazol-5-yl)ethyl nitrate maleate]: in the test on Mecp2 female mice (HET) [1] (setting [3]), the “% Recovery, Body Motion” value is recorded as 19%; the “% Recovery, Gait Dynamic and Geometry” value is given as 53%; the “% Recovery, Overall Gait” value is reported as 24%; the “% Recovery, Paw Features” value was found to be 63%. In addition, in the test with Mecp2 female mice (HET) [1] (setting [3]), the “% Recovery, Paw Positioning” value worked out at 17% and the “% Recovery, Rhythmicity” value is 0%. For the same molecule, the “Improvement of important gait features (up to)” value with Mecp2 female mice (HET) [1] (RETT mice, after 12 weeks of treatment, particularly at the lower dose (1.35 mg/kg IP daily + 0.675 mg/ml in drinking water)) was more than 60%. The Startle response entry with Mecp2 female mice (HET) [2] was “tendency to improve startle response”.
